Source: publication PMC9219006 (Plant Direct, 2022)
Read-outs that look alike come from different tables or passages of the source.

System: ASAT1H (SqASAT1H; c39979_g2_i1)
Experiment: LC-MS/MS product formation, Michaelis-Menten fit
Format: biochemical, Solanum quitoense
Conditions: read-out: apparent Km, 30 °C, pH 6 (default), 20 min

| Structure (SMILES) | Km (myo-inositol saturating) [µM] | Km (nC10-CoA saturating) [µM] |
| --- | --- | --- |
| CCCCCCCCCC(=O)SCCNC(=O)CCNC(=O)[C@H](O)C(C)(C)COP(=O)(O)OP(=O)(O)OC[C@H]1O[C@@H](n2cnc3c(N)ncnc32)[C@H](O)[C@@H]1OP(=O)(O)O [nC10-CoA] | 9.5 ± 2.4 | – |
| CCCCCCCCCCCC(=O)SCCNC(=O)CCNC(=O)[C@H](O)C(C)(C)COP(=O)(O)OP(=O)(O)OC[C@H]1O[C@@H](n2cnc3c(N)ncnc32)[C@H](O)[C@@H]1OP(=O)(O)O [nC12-CoA] | 16.6 ± 6.6 | – |
| O[C@H]1[C@H](O)[C@@H](O)[C@H](O)[C@@H](O)[C@H]1O [myo-inositol] | – | 4400 ± 1100 |
